Earlier results on 2 compounds are cited in patent US20260284033A1, “COMBINATION THERAPY WITH LP-PLA2 INHIBITOR AND A SECOND AGENT” (SciNeuro Therapeutics Inc., priority 2023, published 2026).

The test system of data set [1] is BBB leakage animal models.
In a further data set the test system is AD patients. The note with it: phase 2, AD patients.

For `CCN(CC)CCN(Cc1ccc(-c2ccc(C(F)(F)F)cc2)cc1)C(=O)Cn1c(SCc2ccc(F)cc2)nc(=O)c2c1CCC2` [darapladib], in data set [1], the BBB leakage result is recorded as “reduced BBB leakage” and the vascular dementia pathology entry is reported as “improved vascular dementia pathology”.
As for `COCCN1CCC(N(Cc2ccc(-c3ccc(C(F)(F)F)cc3)cc2)C(=O)Cn2c(SCc3cccc(F)c3F)cc(=O)c3ccccc32)CC1` [rilapladib], in the data set with AD patients, the cognitive decline entry is given as “slowed down cognitive decline”, the disease biomarkers result is “improved disease biomarkers” and the tolerability entry was “well tolerated”.
